Laboratory results from EP2727916A1, “Neuroprotective multi-target directed drugs” (Universitat Autònoma de Barcelona, priority 2012, dated 2014).

Key:
Assay type in all cases: biochemical
bovine lung SSAO = target: T1, bovine lung SSAO (Bos taurus, UniProt Q9TTK6); assay: Inhibition of semicarbazide sensitive amine oxidase (SSAO), radiochemical
T1 construct: and bovine lung SSAO by compounds of the invention; from tissue; host or cells: bovine lung
T1 sequence (Q9TTK6 1-763): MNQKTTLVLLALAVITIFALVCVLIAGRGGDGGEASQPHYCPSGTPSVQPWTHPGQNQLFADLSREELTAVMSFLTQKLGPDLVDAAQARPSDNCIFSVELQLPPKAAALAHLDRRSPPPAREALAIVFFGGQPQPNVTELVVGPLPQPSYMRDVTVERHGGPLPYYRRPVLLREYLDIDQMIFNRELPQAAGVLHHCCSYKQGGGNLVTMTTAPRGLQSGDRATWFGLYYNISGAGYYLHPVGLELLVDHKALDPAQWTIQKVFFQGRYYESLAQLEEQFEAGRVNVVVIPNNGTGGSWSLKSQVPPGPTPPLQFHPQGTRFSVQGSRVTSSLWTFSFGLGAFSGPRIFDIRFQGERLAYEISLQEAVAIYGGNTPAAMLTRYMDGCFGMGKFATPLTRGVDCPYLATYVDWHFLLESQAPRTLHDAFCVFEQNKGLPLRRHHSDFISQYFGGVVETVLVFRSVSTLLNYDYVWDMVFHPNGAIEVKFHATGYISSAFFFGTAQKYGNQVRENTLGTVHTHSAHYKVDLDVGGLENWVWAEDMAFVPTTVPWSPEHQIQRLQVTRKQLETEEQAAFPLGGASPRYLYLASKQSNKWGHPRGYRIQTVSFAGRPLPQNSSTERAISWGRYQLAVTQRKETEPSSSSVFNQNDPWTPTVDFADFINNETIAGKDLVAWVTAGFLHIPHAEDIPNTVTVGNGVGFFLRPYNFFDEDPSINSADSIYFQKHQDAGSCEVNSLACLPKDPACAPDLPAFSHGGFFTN

EeAChE = EeAChE (Electrophorus electricus, UniProt O42275); assay: Kinetic study of EeAChE inhibition (Lineweaver-Burk plots)
Method: (§1) Lineweaver-Burk reciprocal plots of initial velocity and substrate concentrations (0.1-1 mM) are presented. […] Lineweaver-Burk reciprocal plots of initial velocity and substrate concentrations (0.1-1 mM) are presented. […] Lineweaver-Burk reciprocal plots of initial velocity and substrate concentrations (0.1-1 mM) are presented. […] Three consecutive centrifuges were performed with buffer. […] 5 µM). All solution were made using Tris buffer pH7.4. […] 5 µM). All solution were made using Tris buffer pH7.4. […] 5 µM). All solution were made using Tris buffer pH7.4. Spectra were obtained after a Short-time incubation
To determine the type of the EeAChE inhibition mechanism of these compounds, a kinetic study was carried out on inhibitor 6.

MAO-A = target: T2, MAO-A (Rattus norvegicus, UniProt P21396); assay: Reversibility study of MAO-A inhibition (centrifugation and washing)
T2 construct: from tissue; host or cells: rat brain homogenate per the methods
T2 sequence (P21396 1-526): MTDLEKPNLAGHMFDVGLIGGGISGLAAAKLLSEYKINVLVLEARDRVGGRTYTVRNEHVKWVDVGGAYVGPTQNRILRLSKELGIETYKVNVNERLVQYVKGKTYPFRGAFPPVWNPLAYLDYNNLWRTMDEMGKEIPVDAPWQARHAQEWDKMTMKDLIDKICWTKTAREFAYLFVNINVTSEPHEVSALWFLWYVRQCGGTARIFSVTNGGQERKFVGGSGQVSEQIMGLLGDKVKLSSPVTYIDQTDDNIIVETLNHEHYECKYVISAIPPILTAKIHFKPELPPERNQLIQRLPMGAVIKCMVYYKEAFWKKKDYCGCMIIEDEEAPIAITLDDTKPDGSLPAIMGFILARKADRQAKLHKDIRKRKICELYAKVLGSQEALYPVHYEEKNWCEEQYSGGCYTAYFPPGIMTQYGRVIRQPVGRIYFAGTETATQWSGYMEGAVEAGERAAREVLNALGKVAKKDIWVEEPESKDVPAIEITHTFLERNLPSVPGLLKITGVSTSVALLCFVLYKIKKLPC
Method: as §1

MAO-B = target: T3, MAO-B (Rattus norvegicus, UniProt P19643); assay: Reversibility study of MAO-B inhibition (centrifugation and washing)
T3 construct: from tissue; host or cells: rat brain homogenate per the methods
T3 sequence (P19643 1-520): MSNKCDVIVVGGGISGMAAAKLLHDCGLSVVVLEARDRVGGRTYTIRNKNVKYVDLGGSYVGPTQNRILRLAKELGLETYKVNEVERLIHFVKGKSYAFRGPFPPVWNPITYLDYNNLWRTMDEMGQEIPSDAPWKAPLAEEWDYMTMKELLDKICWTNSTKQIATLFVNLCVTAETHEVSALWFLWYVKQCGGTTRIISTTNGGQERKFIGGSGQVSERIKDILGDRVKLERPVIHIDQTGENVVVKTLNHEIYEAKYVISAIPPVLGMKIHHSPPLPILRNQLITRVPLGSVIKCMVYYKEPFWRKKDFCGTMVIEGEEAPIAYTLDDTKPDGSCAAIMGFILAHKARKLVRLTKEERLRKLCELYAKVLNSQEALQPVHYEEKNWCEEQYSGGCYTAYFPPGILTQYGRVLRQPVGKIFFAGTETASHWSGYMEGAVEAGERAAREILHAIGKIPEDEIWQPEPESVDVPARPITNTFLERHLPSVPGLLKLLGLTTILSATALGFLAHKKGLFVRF
Method: as §1

ratMAO-A = target: T4, ratMAO-A (Rattus norvegicus, UniProt P21396); assay: MAO-A inhibition, radiometric method of Fowler and Tipton (14C 5-HT); set-up: MAO-A and MAO-B activities were determined in rat brain homogenate; from tissue; host or cells: rat brain homogenate per the methods
T4 sequence (P21396 1-526): T2 sequence (P21396 1-526)

ratMAO-B = target: T5, ratMAO-B (Rattus norvegicus, UniProt P19643); assay: MAO-B inhibition, radiometric method of Fowler and Tipton (14C PEA); set-up: MAO-A and MAO-B activities were determined in rat brain homogenate; from tissue; host or cells: rat brain homogenate per the methods
T5 sequence (P19643 1-520): T3 sequence (P19643 1-520)

Chain of EeAChE (O42275 24-633): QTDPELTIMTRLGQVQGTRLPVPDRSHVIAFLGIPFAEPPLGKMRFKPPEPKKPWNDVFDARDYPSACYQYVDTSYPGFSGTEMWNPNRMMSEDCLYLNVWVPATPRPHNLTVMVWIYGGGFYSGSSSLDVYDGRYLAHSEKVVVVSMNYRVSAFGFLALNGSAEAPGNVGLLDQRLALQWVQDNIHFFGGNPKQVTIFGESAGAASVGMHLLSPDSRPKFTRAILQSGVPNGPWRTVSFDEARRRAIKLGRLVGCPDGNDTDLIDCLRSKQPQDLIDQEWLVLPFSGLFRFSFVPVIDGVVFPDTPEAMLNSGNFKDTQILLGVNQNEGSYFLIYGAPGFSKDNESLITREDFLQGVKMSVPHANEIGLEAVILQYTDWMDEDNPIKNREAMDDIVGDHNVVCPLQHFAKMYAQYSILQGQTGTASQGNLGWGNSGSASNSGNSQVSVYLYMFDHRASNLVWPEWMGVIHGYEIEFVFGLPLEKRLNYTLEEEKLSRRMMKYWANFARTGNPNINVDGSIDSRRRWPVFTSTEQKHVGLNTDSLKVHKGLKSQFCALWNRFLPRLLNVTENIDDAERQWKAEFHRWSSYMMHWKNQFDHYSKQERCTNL

`C#CCN(Cc1ccc(O)c2ncccc12)C(C#N)CCC1CCN(Cc2ccccc2)CC1` (stereo not shown) [Compound 6, 4-(1-benzylpiperidin-4-yl)-2-(((8-hydroxyquinolin-5-yl)methyl)(prop-2-yny)amino)butanenitrile] was tested, and the IC50 (bovine lung SSAO) was 2.01 ± 0.5 µM, the “type of EeAChE inhibition mechanism” value (EeAChE; Lineweaver-Burk reciprocal plots) was “mixed-type inhibition” and the Ki (EeAChE; estimated from the slopes of double reciprocal plots) was 1.21 ± 0.25 µM. For the same molecule, the “reversibility of MAO-A inhibition” value (MAO-A; 30 min inhibition (6 at 10 µM, clorgyline 50 nM), three consecutive centrifugations and washings with buffer) was “reversibly inhibited”, the MAO-A activity recovering (MAO-A; inhibited at 10 µM for 30 min, three consecutive centrifuges with buffer, mean ± SEM) was 56.5 ± 9.3% and the “reversibility of MAO-B inhibition” value (MAO-B; 30 min inhibition (6 at 20 µM, I-deprenyl 20 nM), three consecutive centrifugations and washings with buffer) was “reversibly inhibited”. For the same molecule, the MAO-B activity recovering (MAO-B; inhibited at 20 µM for 30 min, three consecutive centrifuges with buffer, mean ± SEM) was 55.8 ± 4.0%, the IC50 (ratMAO-A) was 6.16 ± 0.7 µM and the “fold less active than M-30 for the inhibition of MAO-A” value (ratMAO-A) was 166 fold. The “fold more active than donepezil 1 for MAO-A” value (ratMAO-A) was 138 fold, the IC50 (ratMAO-B) was 10.2 ± 0.9 µM and the “MAO-B/ MAO-A” value (ratMAO-B) was 1.7. For the same molecule, the “fold less active than M-30 for the inhibition of MAO-B” value (ratMAO-B) was 179 fold.
